From ChEMBL document CHEMBL3885881, “DrugMatrix”

Species on record: Rattus norvegicus
Experiment: DrugMatrix - Regimen: Daily Repeat
Assay type: toxicity, organism-based, Sprague-Dawley
Parameters: regimen Daily Repeat, gender Male, age 6-8 weeks
Conditions: in vivo, po, route oral GAVAGE, […]; for ABSOLUTE BASOPHIL / ABSOLUTE EOSINOPHIL / ABSOLUTE LYMPHOCYTE / ABSOLUTE MONOCYTE / ABSOLUTE SEGMENTED NEUTROPHIL / BASOPHIL / EOSINOPHIL / ERYTHROCYTE COUNT / HEMATOCRIT / HEMOGLOBIN / LEUKOCYTE COUNT / LYMPHOCYTE / MEAN CORPUSCULAR HEMOGLOBIN / MEAN CORPUSCULAR HEMOGLOBIN CONCENTRATION / MEAN CORPUSCULAR VOLUME / MONOCYTE / NEUTROPHIL / NUCLEATED RED BLOOD CELLS / PLATELET COUNT: tissue Blood; for ALANINE AMINOTRANSFERASE / ALBUMIN / ALKALINE PHOSPHATASE / ASPARTATE AMINOTRANSFERASE / BLOOD UREA NITROGEN / CARBON DIOXIDE / CHLORIDE / CHOLESTEROL / CREATINE PHOSPHOKINASE / CREATININE / GLUCOSE / LACTATE DEHYDROGENASE / LIPASE / PHOSPHORUS / POTASSIUM / SODIUM / TOTAL BILIRUBIN / TOTAL PROTEIN / URIC ACID: tissue Plasma
[1] = 0 mg/kg, 72 h, dose level Control, time 3 day
[2] = 0 mg/kg, 120 h, dose level Control, time 5 day
[3] = 10 mg/kg, 72 h, dose level Low, time 3 day
[4] = 10 mg/kg, 120 h, dose level Low, time 5 day

SMILES: OC(Cn1cncn1)(Cn1cncn1)c1ccc(F)cc1F [FLUCONAZOLE]
- ABSOLUTE BASOPHIL [1]: 0 CELLS/uL
- ABSOLUTE EOSINOPHIL [1]: 104.17 CELLS/uL
- ABSOLUTE LYMPHOCYTE [1]: 14547 CELLS/uL
- ABSOLUTE MONOCYTE [1]: 292 CELLS/uL
- ABSOLUTE SEGMENTED NEUTROPHIL [1]: 1640.17 CELLS/uL
- BASOPHIL [1]: 0%
- EOSINOPHIL [1]: 0.67%
- ERYTHROCYTE COUNT [1]: 5.35 x10E6/uL
- HEMATOCRIT [1]: 33.67%
- HEMOGLOBIN [1]: 13.38 G/DL
- LEUKOCYTE COUNT [1]: 16.58 x10E3/uL
- LYMPHOCYTE [1]: 87.5%
- MEAN CORPUSCULAR HEMOGLOBIN [1]: 25.05 pg
- MEAN CORPUSCULAR HEMOGLOBIN CONCENTRATION [1]: 39.78 G/DL
- MEAN CORPUSCULAR VOLUME [1]: 62.97 fL
- MONOCYTE [1]: 1.83%
- NEUTROPHIL [1]: 10%
- NUCLEATED RED BLOOD CELLS [1]: 0 /100WBC
- PLATELET COUNT [1]: 1274.5 x10E3/uL
- ALANINE AMINOTRANSFERASE [1]: 76.83 u/L
- ALBUMIN [1]: 3.97 G/DL
- ALKALINE PHOSPHATASE [1]: 347 u/L
- ASPARTATE AMINOTRANSFERASE [1]: 97.17 u/L
- BLOOD UREA NITROGEN [1]: 14.33 mg/dL
- CARBON DIOXIDE [1]: 25.5 mmol/L
- CHLORIDE [1]: 100.33 MEQ/L
- CHOLESTEROL [1]: 68.67 mg/dL
- CREATINE PHOSPHOKINASE [1]: 659.17 u/L
- CREATININE [1]: 0.32 mg/dL
- GLUCOSE [1]: 160.67 mg/dL
- LACTATE DEHYDROGENASE [1]: 271.5 u/L
- LIPASE [1]: 11.67 u/L
- PHOSPHORUS [1]: 10.65 mg/dL
- POTASSIUM [1]: 5.95 MEQ/L
- SODIUM [1]: 139.65 MEQ/L
- TOTAL BILIRUBIN [1]: 0.2 mg/dL
- TOTAL PROTEIN [1]: 5.72 G/DL
- URIC ACID [1]: 1.37 mg/dL
- ABSOLUTE BASOPHIL [2]: 0 CELLS/uL
- ABSOLUTE EOSINOPHIL [2]: 331.5 CELLS/uL
- ABSOLUTE LYMPHOCYTE [2]: 15021.67 CELLS/uL
- ABSOLUTE MONOCYTE [2]: 376.5 CELLS/uL
- ABSOLUTE SEGMENTED NEUTROPHIL [2]: 3070.33 CELLS/uL
- BASOPHIL [2]: 0%
- EOSINOPHIL [2]: 1.83%
- ERYTHROCYTE COUNT [2]: 5.24 x10E6/uL
- HEMATOCRIT [2]: 33.22%
- HEMOGLOBIN [2]: 13.2 G/DL
- LEUKOCYTE COUNT [2]: 18.8 x10E3/uL
- LYMPHOCYTE [2]: 79.67%
- MEAN CORPUSCULAR HEMOGLOBIN [2]: 25.17 pg
- MEAN CORPUSCULAR HEMOGLOBIN CONCENTRATION [2]: 39.73 G/DL
- MEAN CORPUSCULAR VOLUME [2]: 63.38 fL
- MONOCYTE [2]: 2%
- NEUTROPHIL [2]: 16.5%
- NUCLEATED RED BLOOD CELLS [2]: 0 /100WBC
- PLATELET COUNT [2]: 1142.67 x10E3/uL
- ALANINE AMINOTRANSFERASE [2]: 52.5 u/L
- ALBUMIN [2]: 3.9 G/DL
- ALKALINE PHOSPHATASE [2]: 284.5 u/L
- ASPARTATE AMINOTRANSFERASE [2]: 81.33 u/L
- BLOOD UREA NITROGEN [2]: 16 mg/dL
- CARBON DIOXIDE [2]: 25.33 mmol/L
- CHLORIDE [2]: 99.5 MEQ/L
- CHOLESTEROL [2]: 74.83 mg/dL
- CREATINE PHOSPHOKINASE [2]: 448.33 u/L
- CREATININE [2]: 0.37 mg/dL
- GLUCOSE [2]: 164.17 mg/dL
- LACTATE DEHYDROGENASE [2]: 290.67 u/L
- LIPASE [2]: 6.83 u/L
- PHOSPHORUS [2]: 11.5 mg/dL
- POTASSIUM [2]: 6.28 MEQ/L
- SODIUM [2]: 139.5 MEQ/L
- TOTAL BILIRUBIN [2]: 0.13 mg/dL
- TOTAL PROTEIN [2]: 5.55 G/DL
- URIC ACID [2]: 1.12 mg/dL
- ABSOLUTE BASOPHIL [3]: 0 CELLS/uL
- ABSOLUTE EOSINOPHIL [3]: 105 CELLS/uL
- ABSOLUTE LYMPHOCYTE [3]: 3531.33 CELLS/uL
- ABSOLUTE MONOCYTE [3]: 187.33 CELLS/uL
- ABSOLUTE SEGMENTED NEUTROPHIL [3]: 2209.67 CELLS/uL
- BASOPHIL [3]: 0%
- EOSINOPHIL [3]: 1.67%
- ERYTHROCYTE COUNT [3]: 5.95 x10E6/uL
- HEMATOCRIT [3]: 39.17%
- HEMOGLOBIN [3]: 15.1 G/DL
- LEUKOCYTE COUNT [3]: 6.03 x10E3/uL
- LYMPHOCYTE [3]: 58%
- MEAN CORPUSCULAR HEMOGLOBIN [3]: 25.67 pg
- MEAN CORPUSCULAR HEMOGLOBIN CONCENTRATION [3]: 38.63 G/DL
- MEAN CORPUSCULAR VOLUME [3]: 66.27 fL
- MONOCYTE [3]: 3%
- NEUTROPHIL [3]: 37.33%
- NUCLEATED RED BLOOD CELLS [3]: 0 /100WBC
- PLATELET COUNT [3]: 1032.33 x10E3/uL
- ALANINE AMINOTRANSFERASE [3]: 59.33 u/L
- ALBUMIN [3]: 4.63 G/DL
- ALKALINE PHOSPHATASE [3]: 452.67 u/L
- ASPARTATE AMINOTRANSFERASE [3]: 96 u/L
- BLOOD UREA NITROGEN [3]: 19.33 mg/dL
- CARBON DIOXIDE [3]: 20.67 mmol/L
- CHLORIDE [3]: 101.33 MEQ/L
- CHOLESTEROL [3]: 45.67 mg/dL
- CREATINE PHOSPHOKINASE [3]: 639.33 u/L
- CREATININE [3]: 0.14 mg/dL
- GLUCOSE [3]: 174 mg/dL
- LACTATE DEHYDROGENASE [3]: 123 u/L
- LIPASE [3]: 24.67 u/L
- PHOSPHORUS [3]: 11.63 mg/dL
- POTASSIUM [3]: 6.15 MEQ/L
- SODIUM [3]: 142.57 MEQ/L
- TOTAL BILIRUBIN [3]: 0.23 mg/dL
- TOTAL PROTEIN [3]: 6.43 G/DL
- URIC ACID [3]: 1.47 mg/dL
- ABSOLUTE BASOPHIL [4]: 0 CELLS/uL
- ABSOLUTE EOSINOPHIL [4]: 0 CELLS/uL
- ABSOLUTE LYMPHOCYTE [4]: 10059.67 CELLS/uL
- ABSOLUTE MONOCYTE [4]: 397 CELLS/uL
- ABSOLUTE SEGMENTED NEUTROPHIL [4]: 1576.67 CELLS/uL
- BASOPHIL [4]: 0%
- EOSINOPHIL [4]: 0%
- ERYTHROCYTE COUNT [4]: 6.01 x10E6/uL
- HEMATOCRIT [4]: 38.4%
- HEMOGLOBIN [4]: 14.77 G/DL
- LEUKOCYTE COUNT [4]: 12.03 x10E3/uL
- LYMPHOCYTE [4]: 83.33%
- MEAN CORPUSCULAR HEMOGLOBIN [4]: 24.57 pg
- MEAN CORPUSCULAR HEMOGLOBIN CONCENTRATION [4]: 38.5 G/DL
- MEAN CORPUSCULAR VOLUME [4]: 63.9 fL
- MONOCYTE [4]: 3.33%
- NEUTROPHIL [4]: 13.33%
- NUCLEATED RED BLOOD CELLS [4]: 0.33 /100WBC
- PLATELET COUNT [4]: 1300 x10E3/uL
- ALANINE AMINOTRANSFERASE [4]: 78.67 u/L
- ALBUMIN [4]: 4.23 G/DL
- ALKALINE PHOSPHATASE [4]: 452.67 u/L
- ASPARTATE AMINOTRANSFERASE [4]: 86.67 u/L
- BLOOD UREA NITROGEN [4]: 10.67 mg/dL
- CARBON DIOXIDE [4]: 27 mmol/L
- CHLORIDE [4]: 100.67 MEQ/L
- CHOLESTEROL [4]: 56 mg/dL
- CREATINE PHOSPHOKINASE [4]: 230.33 u/L
- CREATININE [4]: 0.11 mg/dL
- GLUCOSE [4]: 169.67 mg/dL
- LACTATE DEHYDROGENASE [4]: 181.33 u/L
- LIPASE [4]: 6.67 u/L
- PHOSPHORUS [4]: 11.83 mg/dL
- POTASSIUM [4]: 5.55 MEQ/L
- SODIUM [4]: 141.67 MEQ/L
- TOTAL BILIRUBIN [4]: 0.2 mg/dL
- TOTAL PROTEIN [4]: 6.23 G/DL
- URIC ACID [4]: 1.3 mg/dL
